Measurements taken from PMC4075192 (Drug metabolism and pharmacokinetics, 2013).
Changes are numbered by the printed parent chain. Read-outs that look alike come from different tables or passages of the source.

Key:
CYP2B6 [1] = conditions: cited from earlier work
CYP2C19 [2] = biological target: T1, CYP2C19 (Homo sapiens, UniProt P33261); conditions: fraction of substrate metabolized by the inhibited CYP pathway (CYP2C19); cited from earlier work
CYP3A = CYP3A (Homo sapiens, UniProt P08684); experiment: Inhibition of CYP3A; format: in vitro ADME; conditions: pooled human liver microsomes, pH 7.4, probe testosterone (6-β hydroxylation), 10 μM, inhibition of CYP3A activity, 50 μM efavirenz, pooled HLMs, 10 μM testosterone
Chain of CYP3A (P08684 2-503): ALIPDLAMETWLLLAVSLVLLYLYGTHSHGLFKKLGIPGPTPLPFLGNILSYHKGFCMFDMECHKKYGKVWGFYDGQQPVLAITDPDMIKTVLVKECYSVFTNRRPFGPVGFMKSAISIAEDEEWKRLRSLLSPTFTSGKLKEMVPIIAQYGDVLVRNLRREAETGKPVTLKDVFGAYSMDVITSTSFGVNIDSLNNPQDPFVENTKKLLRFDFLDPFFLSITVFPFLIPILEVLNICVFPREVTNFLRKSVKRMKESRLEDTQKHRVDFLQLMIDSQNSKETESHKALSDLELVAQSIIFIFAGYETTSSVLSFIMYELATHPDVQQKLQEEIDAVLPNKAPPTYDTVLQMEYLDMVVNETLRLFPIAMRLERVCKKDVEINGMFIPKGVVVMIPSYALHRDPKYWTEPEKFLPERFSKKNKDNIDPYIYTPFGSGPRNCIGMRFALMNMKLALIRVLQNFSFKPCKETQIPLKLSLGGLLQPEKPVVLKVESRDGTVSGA

UGT2B7 = conditions: in vitro; cited from earlier work
CYP2C19 [3] = biological target: T1, CYP2C19; experiment: Inhibition of CYP2C19; format: in vitro ADME
expressed CYP2C8 = biological target: T2, expressed CYP2C8 (Homo sapiens, UniProt P10632); experiment: Inhibition of expressed CYP2C8; format: in vitro ADME
T2 sequence (P10632 1-490): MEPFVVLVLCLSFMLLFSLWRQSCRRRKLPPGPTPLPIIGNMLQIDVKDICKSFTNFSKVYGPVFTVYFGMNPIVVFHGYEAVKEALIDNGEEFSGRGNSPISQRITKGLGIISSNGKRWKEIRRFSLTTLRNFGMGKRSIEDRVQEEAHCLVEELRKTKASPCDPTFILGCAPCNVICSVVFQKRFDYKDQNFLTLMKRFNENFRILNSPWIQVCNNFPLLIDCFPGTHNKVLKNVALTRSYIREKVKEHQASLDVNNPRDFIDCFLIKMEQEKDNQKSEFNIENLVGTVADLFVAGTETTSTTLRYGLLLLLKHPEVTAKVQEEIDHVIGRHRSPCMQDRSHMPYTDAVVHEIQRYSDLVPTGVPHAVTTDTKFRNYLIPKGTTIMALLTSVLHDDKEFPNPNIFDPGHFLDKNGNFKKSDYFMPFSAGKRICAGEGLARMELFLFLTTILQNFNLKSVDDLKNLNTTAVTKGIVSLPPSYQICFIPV

CYP2C9 [4] = biological target: T3, CYP2C9 (Homo sapiens, UniProt P11712); conditions: in vitro study; cited from earlier work
T3 sequence (P11712 whole entry): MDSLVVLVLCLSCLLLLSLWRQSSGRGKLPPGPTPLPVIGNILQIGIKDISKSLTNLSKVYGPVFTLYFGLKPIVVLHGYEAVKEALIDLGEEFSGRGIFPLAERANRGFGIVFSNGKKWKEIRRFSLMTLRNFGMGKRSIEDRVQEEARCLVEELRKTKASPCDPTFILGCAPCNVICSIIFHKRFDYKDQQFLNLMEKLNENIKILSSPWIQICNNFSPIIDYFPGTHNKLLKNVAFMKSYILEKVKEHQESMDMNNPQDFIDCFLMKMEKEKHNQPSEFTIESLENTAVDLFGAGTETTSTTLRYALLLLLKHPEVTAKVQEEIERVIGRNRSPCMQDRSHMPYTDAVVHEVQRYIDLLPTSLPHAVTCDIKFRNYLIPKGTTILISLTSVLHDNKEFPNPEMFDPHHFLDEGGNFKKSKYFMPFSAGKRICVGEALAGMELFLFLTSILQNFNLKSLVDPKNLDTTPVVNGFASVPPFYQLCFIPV

[5] = cited from earlier work
CYP2B6 [6] = biological target: T4, CYP2B6 (Homo sapiens, UniProt P20813); conditions: substrate bupropion
T4 sequence (P20813 1-491): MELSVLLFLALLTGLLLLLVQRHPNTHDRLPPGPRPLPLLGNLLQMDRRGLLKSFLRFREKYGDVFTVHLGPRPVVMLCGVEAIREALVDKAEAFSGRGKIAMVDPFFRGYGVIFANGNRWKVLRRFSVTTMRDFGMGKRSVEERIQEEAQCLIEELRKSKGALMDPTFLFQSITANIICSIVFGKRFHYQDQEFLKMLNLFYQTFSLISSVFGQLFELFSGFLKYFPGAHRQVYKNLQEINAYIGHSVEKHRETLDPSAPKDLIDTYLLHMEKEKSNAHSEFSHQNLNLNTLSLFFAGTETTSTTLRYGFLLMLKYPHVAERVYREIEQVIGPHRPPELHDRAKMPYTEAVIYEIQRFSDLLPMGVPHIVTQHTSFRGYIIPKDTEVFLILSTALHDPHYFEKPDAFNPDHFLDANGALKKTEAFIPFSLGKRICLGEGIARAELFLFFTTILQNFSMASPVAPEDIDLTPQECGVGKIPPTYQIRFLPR

[7] = test system: CYP isoforms (eight major CYPs except for CYP2B6); experiment: Time-dependent inhibition of CYP isoforms in pooled HLMs; format: in vitro ADME, human; conditions: 50 μM efavirenz
expressed CYP2B6 [8] = biological target: T5, expressed CYP2B6 (Homo sapiens, UniProt P20813); experiment: Inhibition of expressed CYP2B6; format: in vitro ADME; conditions: substrate bupropion
T5 sequence (P20813 1-491): T4 sequence (P20813 1-491)

CYP2C8 [9] = biological target: T6, CYP2C8 (Homo sapiens, UniProt P10632); experiment: in vitro; conditions: microsomes, pH 7.4
T6 sequence (P10632 1-490): T2 sequence (P10632 1-490)

[10] = Efavirenz plasma pharmacokinetics; format: in vivo; conditions: human, po, 600 mg
CYP2C8 [11] = conditions: expressed CYPs; cited from earlier work
expressed CYP2B6 [12] = conditions: cited from earlier work
CYP2D6 = CYP2D6 (Homo sapiens, UniProt P10635); experiment: Inhibition of CYP2D6; format: in vitro ADME; conditions: pooled human liver microsomes, pH 7.4, probe dextromethorphan (O-demethylation)
Chain of CYP2D6 (P10635 whole entry): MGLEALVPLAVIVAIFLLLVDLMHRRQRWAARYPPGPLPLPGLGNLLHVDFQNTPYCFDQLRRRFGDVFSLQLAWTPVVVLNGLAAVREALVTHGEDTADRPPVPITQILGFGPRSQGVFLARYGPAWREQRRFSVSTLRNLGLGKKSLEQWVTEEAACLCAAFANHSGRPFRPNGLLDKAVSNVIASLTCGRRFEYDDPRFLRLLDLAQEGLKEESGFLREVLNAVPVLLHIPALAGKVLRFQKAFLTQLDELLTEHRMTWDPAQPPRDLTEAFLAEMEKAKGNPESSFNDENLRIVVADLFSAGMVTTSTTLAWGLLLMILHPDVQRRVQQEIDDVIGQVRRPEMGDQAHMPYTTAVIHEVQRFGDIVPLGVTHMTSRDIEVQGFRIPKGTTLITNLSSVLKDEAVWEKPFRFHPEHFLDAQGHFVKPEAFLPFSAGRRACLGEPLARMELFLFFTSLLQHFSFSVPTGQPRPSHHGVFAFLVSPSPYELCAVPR

CYP2C9 [13] = biological target: T3, CYP2C9; experiment: Inhibition of CYP2C9; format: in vitro ADME
CYP1A2 = CYP1A2 (Homo sapiens, UniProt P05177); experiment: Inhibition of CYP1A2; conditions: 50 μM phenacetin
Chain of CYP1A2 (P05177 whole entry): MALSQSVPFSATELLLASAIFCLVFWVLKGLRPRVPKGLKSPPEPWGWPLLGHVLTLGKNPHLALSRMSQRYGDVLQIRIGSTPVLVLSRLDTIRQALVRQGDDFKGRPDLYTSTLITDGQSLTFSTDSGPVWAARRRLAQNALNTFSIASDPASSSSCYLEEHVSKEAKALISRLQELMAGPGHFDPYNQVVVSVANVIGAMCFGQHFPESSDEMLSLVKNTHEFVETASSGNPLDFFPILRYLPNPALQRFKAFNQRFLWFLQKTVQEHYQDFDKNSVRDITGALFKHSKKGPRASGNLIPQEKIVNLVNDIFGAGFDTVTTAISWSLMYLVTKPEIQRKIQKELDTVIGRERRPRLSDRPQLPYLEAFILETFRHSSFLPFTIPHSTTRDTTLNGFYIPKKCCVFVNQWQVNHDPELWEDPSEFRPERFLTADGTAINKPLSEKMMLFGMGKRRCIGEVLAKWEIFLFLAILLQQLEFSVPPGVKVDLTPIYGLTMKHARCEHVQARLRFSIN

CYP2C8 [14] = biological target: T7, CYP2C8 (Homo sapiens, UniProt P10632, K399R/R139K); experiment: Inhibition of CYP2C8
T7 sequence (P10632 1-490 R139K/K399R): T2 sequence (P10632 1-490) with R139K, K399R

CYP2C8 [15] = biological target: T6, CYP2C8; experiment: Inhibition of CYP2C8; conditions: pooled HLMs; substrate amodiaquine
CYP2A6 = biological target: T8, CYP2A6 (Homo sapiens, UniProt P11509); experiment: Inhibition of CYP2A6; format: in vitro ADME; conditions: pooled human liver microsomes, pH 7.4, probe coumarin (7-hydroxylation)
T8 sequence (P11509 1-494): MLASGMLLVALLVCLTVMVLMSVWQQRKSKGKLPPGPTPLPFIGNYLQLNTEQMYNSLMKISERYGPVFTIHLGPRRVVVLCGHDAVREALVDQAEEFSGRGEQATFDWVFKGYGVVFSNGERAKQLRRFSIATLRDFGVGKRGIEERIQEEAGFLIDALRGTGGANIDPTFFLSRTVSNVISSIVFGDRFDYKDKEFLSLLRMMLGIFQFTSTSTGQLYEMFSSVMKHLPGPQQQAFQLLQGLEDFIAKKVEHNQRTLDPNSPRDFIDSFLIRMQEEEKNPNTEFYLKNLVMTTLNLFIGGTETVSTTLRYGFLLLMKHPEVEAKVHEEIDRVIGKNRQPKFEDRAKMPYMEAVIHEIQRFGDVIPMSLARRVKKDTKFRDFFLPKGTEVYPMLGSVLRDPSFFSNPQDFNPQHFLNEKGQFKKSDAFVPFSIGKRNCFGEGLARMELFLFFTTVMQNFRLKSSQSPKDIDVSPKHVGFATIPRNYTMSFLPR

CYP2C9 [16] = biological target: T3, CYP2C9; conditions: AUCI/AUC with multiple doses of efavirenz (steady state Cmax); CYP2C9 substrates
CYP2C9 [17] = biological target: T3, CYP2C9; conditions: fraction of substrate metabolized by the inhibited CYP pathway (CYP2C9); cited from earlier work

T1 sequence (P33261 whole entry): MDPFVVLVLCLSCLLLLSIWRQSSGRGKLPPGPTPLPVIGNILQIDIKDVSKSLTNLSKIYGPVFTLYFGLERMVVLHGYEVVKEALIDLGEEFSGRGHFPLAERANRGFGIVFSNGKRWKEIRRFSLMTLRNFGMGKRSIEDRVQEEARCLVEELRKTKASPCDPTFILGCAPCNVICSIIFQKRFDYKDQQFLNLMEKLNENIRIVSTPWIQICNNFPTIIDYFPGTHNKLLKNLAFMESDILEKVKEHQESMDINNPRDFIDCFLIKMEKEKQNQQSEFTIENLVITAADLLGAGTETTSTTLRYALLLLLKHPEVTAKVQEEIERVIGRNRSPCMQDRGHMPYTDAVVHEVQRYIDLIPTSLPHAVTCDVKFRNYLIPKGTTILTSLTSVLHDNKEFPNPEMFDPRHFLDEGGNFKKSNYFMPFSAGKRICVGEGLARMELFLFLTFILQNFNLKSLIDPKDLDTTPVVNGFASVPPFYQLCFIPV

CC(NC(C)(C)C)C(=O)c1cccc(Cl)c1 (stereo not shown) [bupropion]
Km (CYP2B6 [1]; bupropion as CYP2B6 substrate): 90 to 130 µM

COc1ccc2[nH]c([S+]([O-])Cc3ncc(C)c(OC)c3C)nc2c1 (stereo not shown) [Omeprazole]
fm (CYP2C19 [2]): 0.87 [26])

O=C1Nc2ccc(Cl)cc2[C@@](C#CC2CC2)(C(F)(F)F)O1 [efavirenz, Efavirenz]
inhibition at 50 μM (CYP3A): > 20%
inhibition of UGT2B7 (UGT2B7): moderate inhibitor
Ki (CYP2C19 [3]): 21.3 ± 2.57 µM
inhibition model (CYP2C19 [3]; pooled HLMs, substrate S-mephenytoin): competitive
Ki (expressed CYP2C8): 6.05 ± 2.86 µM
inhibition model (expressed CYP2C8; expressed CYP2C8, substrate amodiaquine): competitive
IC50 (CYP2C9 [4]): ~15 µM
Ka absorption rate constant [5]: 0.3 h⁻¹
inhibition model (CYP2B6 [6]; CMV negative HLMs): competitive
inhibition model (CYP2B6 [6]; pooled HLMs): competitive
time-dependent inhibition of CYP activity ([7]; preincubation for 30 min): only marginally inhibited
time-dependent inactivation ([7]; shorter preincubation times (5-15 min)): did not show any indication of time-dependent inactivation
inhibition model (expressed CYP2B6 [8]): competitive
Ki (CYP2C8 [9]): 4.78 ± 2.24 µM
Cmax [10]: 4.6 to 8.4 µM
IC50 (CYP2C8 [11]): 4 µM
KI value (time-dependent inhibition) (expressed CYP2B6 [12]): 30 µM
inhibition at 10 μM (CYP2D6): < 10%
inhibition at 50 μM (CYP2D6; 10 μM): < 10%
Ki (CYP2C9 [13]): 19.5 ± 2.78 µM
inhibition model (CYP2C9 [13]; pooled HLMs, substrate tolbutamide): non-competitive
inhibition of CYP1A2 activity (CYP1A2; efavirenz 10 and 50 μM, pooled HLMs): did not indicate that efavirenz inhibits CYP1A2 activity
Ki (CYP2C8 [14]): 4.8 ± 0.35 µM
inhibition model (CYP2C8 [14]; HLMs with CYP2C8*3/*3, substrate amodiaquine): competitive
inhibition model (CYP2C8 [15]): competitive
Km (CYP2B6 [1]): 13 to 20 µM
inhibition at 10 μM (CYP2A6): < 10%
inhibition at 50 μM (CYP2A6; 10 μM): < 10%

CC(=O)C[C@@H](c1ccccc1)c1c(O)c2ccccc2oc1=O [S-Warfarin]
Predicted AUC Ratio (CYP2C9 [16]): 1.7 -2.0

O=C1Nc2c(O)cc(Cl)cc2[C@@](C#CC2CC2)(C(F)(F)F)O1 [8-hydroxyefavirenz]
inhibition of CYP1A2 (CYP1A2; 8-hydroxyefavirenz up to 10 μM (0.5 to 10 μM), pooled HLMs 1 mg/ml, 30 min): ~ 20%

O=C1NC(=O)C(c2ccccc2)(c2ccccc2)N1 [Phenytoin]
fm (CYP2C9 [17]): 0.90 [57])
Predicted AUC Ratio (CYP2C9 [16]): 1.7 -2.0
